Columns and labels:
rat BCAT cytosolic form = target: T1, rat BCAT cytosolic form (Rattus norvegicus, UniProt P54690); test: In vitro coupled enzyme assay (glutamate dehydrogenase, NADH formation), rat BCATc; assay type: biochemical; conditions: recombinant rat BCATc, 37° C., 25 mM phosphate buffer pH 7.8; several values in a cell = repeat determinations; read-out: RrBCATc
T1 construct: made in house; host or cells: E. coli BL21(DE3)
T1 sequence (P54690 1-411): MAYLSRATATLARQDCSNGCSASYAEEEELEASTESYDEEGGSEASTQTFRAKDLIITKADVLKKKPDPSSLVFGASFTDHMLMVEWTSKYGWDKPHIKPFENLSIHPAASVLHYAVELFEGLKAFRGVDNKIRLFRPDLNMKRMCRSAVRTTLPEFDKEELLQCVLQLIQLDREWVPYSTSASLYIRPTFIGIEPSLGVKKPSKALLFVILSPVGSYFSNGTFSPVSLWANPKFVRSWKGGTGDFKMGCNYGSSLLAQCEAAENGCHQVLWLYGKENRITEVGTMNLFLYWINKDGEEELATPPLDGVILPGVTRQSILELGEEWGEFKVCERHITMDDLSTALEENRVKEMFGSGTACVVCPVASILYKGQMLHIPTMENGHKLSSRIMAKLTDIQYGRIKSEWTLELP
Description: In vitro enzyme assay—human Branched Chain Amino Acid Aminotransferase cytosolic form (hBCATc) and mitochondrial form (hBCATm) as well as rat BCAT cytosolic form were assayed at 37° C. in 25 mM phosphate buffer pH 7.8. In addition, 2 mM DTT and 12.5 mM […] were added to the assay mixture. A coupling enzyme assay was used to monitor the production of glutamate. The formation of NADH from NAD+ at […] was followed on a 96-well plate Molecular Devices plate reader.
The following components were used in this coupled assay: 4 mM ADP, 1 mM NAD+, 750 μM L-Leucine, 500 μM α-ketoglutarate, 10 μM pyridoxal phosphate, 1 unit glutamate dehydrogenase, and 1.25 μg of the appropriate BCAT enzyme. Inhibitions by compounds were assayed by adding various concentrations to this coupled assay procedure as a DMSO stock up to a 5% v/v DMSO/buffer ratio.
Enzyme Preparation—humanBCATc and ratBCATc were expressed in BL21(DE3) cells. A growing culture of cells was induced with 1 mM IPTG at room temperature overnight. These cells were harvested by centrifugation at 10,000 g for 20 minutes. The supernatant was discarded, and the cells were stored at −80° C. until needed. The protein was purified by the following method. The cell paste was resuspended in extraction buffer (0.1 M phosphate, pH 8.0, with 0.01 M Tris-HCL and 5 mM TCEP and then lysed on a French Press at 1000 psi. The lysate was centrifuged at 10,000 g for 15 minutes, and the pellet was discarded. The supernatant was loaded onto a Hitrap Chelating column previously charged with 0.1 M NiSO4 and washed with 3 to 4 column volumes of extraction buffer. The column was then washed with 0.01 Tris, pH 7.5, 10% glycerol, 150 mM NaCl, 5 mM TCEP for two column volumes. The column was then further washed with two column volumes of 0.1 M phosphate, pH 6.0, 0.01 M Tris, 10% glycerol and 750 mM NaCl. Finally, the column was washed with two column volumes of the same buffer plus 50 mM imidazole. The BCAT enzyme was then eluted with the same buffer but with 350 mM imidazole. The eluant was then dialyzed overnight against 10 mM phosphate buffer pH 8.0, 10% glycerol, and 5 mM TCEP. The dialyzed protein was then loaded onto a Q-sepharose column and eluted using a salt gradient. Active fractions were collected and further purified on a Superose-12 column to yield pure BCAT protein.

[1] = target: T2, human Branched Chain Amino Acid Aminotransferase cytosolic form (hBCATc) (Homo sapiens, UniProt P54687); test: In vitro coupled enzyme assay (glutamate dehydrogenase, NADH formation), human BCATc; assay type: biochemical; conditions: recombinant human BCATc, 37° C., 25 mM phosphate buffer pH 7.8; several values in a cell = repeat determinations; read-out: RhBCATc
T2 construct: made in house; host or cells: E. coli BL21(DE3)
T2 sequence (P54687 1-386): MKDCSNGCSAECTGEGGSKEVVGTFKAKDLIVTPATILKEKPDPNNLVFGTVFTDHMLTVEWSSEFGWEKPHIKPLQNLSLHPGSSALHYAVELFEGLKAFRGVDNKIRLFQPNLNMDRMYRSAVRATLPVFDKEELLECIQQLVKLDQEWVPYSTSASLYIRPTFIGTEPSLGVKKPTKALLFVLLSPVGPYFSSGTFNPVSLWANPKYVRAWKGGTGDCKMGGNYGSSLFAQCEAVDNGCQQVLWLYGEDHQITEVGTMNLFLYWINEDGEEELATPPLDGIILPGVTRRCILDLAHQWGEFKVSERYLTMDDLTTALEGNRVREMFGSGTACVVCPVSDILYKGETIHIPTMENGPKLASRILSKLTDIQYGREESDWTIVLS
Method in brief: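 At 37 °C in 25 mM phosphate pH 7.8 with 2 mM DTT, 1.25 μg His-tag-purified E. coli-expressed BCAT transaminated 750 μM L-leucine with 500 μM α-ketoglutarate and 10 μM PLP. Glutamate was coupled via glutamate dehydrogenase (1 mM NAD+, 4 mM ADP) to NADH formation at 340 nm. Compounds were added in DMSO up to 5% v/v.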

| IC50 (rat BCAT cytosolic form) [µM] | IC50 [1] [µM] | Compound |
| --- | --- | --- |
| 0.97 | 6.13 | Cc1ccc2oc(C(=O)NNS(=O)(=O)c3cccc(Cl)c3)cc2c1 [Example 84, 2-Benzofurancarboxylic acid, 5-methyl-, 2-[(3-chlorophenyl)sulfonyl]hydrazide] |
| 1.39 | 21.2 | Cc1ccc2oc(C(=O)NNS(=O)(=O)c3ccccc3OC(F)(F)F)cc2c1 [Example 85, 2-Benzofurancarboxylic acid, 5-methyl-, 2-[[2-(trifluoromethoxy)phenyl]-sulfonyl]hydrazide] |
| 1.16 | 41.1 | Cc1cccc2oc(C(=O)NNS(=O)(=O)c3ccccc3)cc12 [Example 87, 2-Benzofurancarboxylic acid, 4-methyl-, 2-(phenylsulfonyl)hydrazide] |
| 4 | 40 | Cc1c(C(=O)NNS(=O)(=O)c2ccccc2)oc2ccccc12 [Example 88, 2-Benzofurancarboxylic acid, 3-methyl-, 2-(phenylsulfonyl)hydrazide] |
| > 100 | > 100 | Cc1c(C(=O)NNS(=O)(=O)c2ccccc2)oc2ccc(Cl)cc12 [Example 90, 2-Benzofurancarboxylic acid, 5-chloro-3-methyl, 2-(phenylsulfonyl)hydrazide] |
| 0.11 | 19.6 | Nc1ccc2oc(C(=O)NNS(=O)(=O)c3ccccc3)cc2c1 [Example 91, 2-Benzofurancarboxylic acid, 5-amino-, 2-(phenylsulfonyl)hydrazide] |
| 1.1 | 12.1 | O=C(NNS(=O)(=O)c1ccccc1F)c1ccc2oc3ccccc3c2c1 [Example 92, 2-Dibenzofurancarboxylic acid, 2-[(2-fluorophenyl)sulfonyl]hydrazide] |
| 0.3 | 2.9 | O=C(NNS(=O)(=O)c1cccc(Br)c1)c1ccc2oc3ccccc3c2c1 [Example 95, 2-Dibenzofurancarboxylic acid, 2-[(3-bromophenyl)sulfonyl]hydrazide] |
| 36.3 | 51.6 | Cc1ccc(S(=O)(=O)NNC(=O)c2ccc3oc4ccccc4c3c2)cc1[N+](=O)[O-] [Example 96, 2-Dibenzofurancarboxylic acid, 2-[(4-methyl-3-nitrophenyl)sulfonyl]hydrazide] |
| 4 | 28.1 | O=C(NNS(=O)(=O)c1ccccc1[N+](=O)[O-])c1ccc2oc3ccccc3c2c1 [Example 100, 2-Dibenzofurancarboxylic acid, 2-[(2-nitrophenyl)sulfonyl]hydrazide] |
| 0.37 | 6 | COc1cccc2cc(C(=O)NNS(=O)(=O)c3cccc(Cl)c3)oc12 [Example 102, 2-Benzofurancarboxylic acid, 7-methoxy-, 2-[(3-chlorophenyl)sulfonyl]hydrazide] |
| 0.85 | 12 | COc1cccc2cc(C(=O)NNS(=O)(=O)c3cccc(F)c3)oc12 [Example 103, 2-Benzofurancarboxylic acid, 7-methoxy-, 2-[(3-fluorophenyl)sulfonyl]hydrazide] |
| 3.3 | 54 | COc1cccc2cc(C(=O)NNS(=O)(=O)c3ccc(F)c(Cl)c3)oc12 [Example 105, 2-Benzofurancarboxylic acid, 7-methoxy-, 2-[(3-chloro-4-fluorophenyl)sulfonyl]-hydrazide] |
| 0.46 | 9.8 | COc1cccc(S(=O)(=O)NNC(=O)c2cc3cccc(OC)c3o2)c1 [Example 109, 2-Benzofurancarboxylic acid, 7-methoxy-, 2-[(3-methoxyphenyl)sulfonyl]-hydrazide] |

The remaining lines, values behind:

| Compound | IC50 (rat BCAT cytosolic form) [µM] | IC50 [1] [µM] |
| --- | --- | --- |
| Cc1ccc2oc(C(=O)NNS(=O)(=O)c3cccc(Br)c3)cc2c1 [Example 83, 2-Benzofurancarboxylic acid, 5-methyl-, 2-[3-(bromophenyl)sulfonyl]hydrazide] | 0.87 | 9.66 |
| Cc1cccc2cc(C(=O)NNS(=O)(=O)c3ccccc3)oc12 [Example 86, 2-Benzofurancarboxylic acid, 7-methyl-, 2-(phenylsulfonyl)hydrazide] | 0.24 | 15.2 |
| Cc1ccc2oc(C(=O)NNS(=O)(=O)c3ccccc3)c(C)c2c1 [Example 89, 2-Benzofurancarboxylic acid, 3,5-dimethyl-, 2-(phenylsulfonyl)hydrazide] | > 100 | > 100 |
| O=C(NNS(=O)(=O)c1c(F)cccc1F)c1ccc2oc3ccccc3c2c1 [Example 93, 2-Dibenzofurancarboxylic acid, 2-(2,6-difluorophenylsulfonyl)hydrazide] | 5.9 | 63.5 |
| O=C(NNS(=O)(=O)c1ccccc1Br)c1ccc2oc3ccccc3c2c1 [Example 94, 2-Dibenzofurancarboxylic acid, 2-[(2-bromophenyl)sulfonyl]hydrazide] | 0.72 | 5.5 |
| O=C(NNS(=O)(=O)c1cc(C(F)(F)F)ccc1Cl)c1ccc2oc3ccccc3c2c1 [Example 97] | 36.4 | 67.5 |
| O=C(NNS(=O)(=O)c1ccccc1OC(F)(F)F)c1ccc2oc3ccccc3c2c1 [Example 98, 2-Dibenzofurancarboxylic acid, 2-[(2-trifluoromethoxyphenyl)sulfonyl]hydrazide] | 0.65 | 2.8 |
| O=C(NNS(=O)(=O)c1ccc(Br)cc1OC(F)(F)F)c1ccc2oc3ccccc3c2c1 [Example 99, 2-Dibenzofurancarboxylic acid, 2-[(4-bromo-2-trifluoromethoxyphenyl)sulfonyl]-hydrazide] | 35.1 | 46.3 |
| O=C(O)c1ccc(S(=O)(=O)NNC(=O)c2ccc3oc4ccccc4c3c2)cc1 [Example 101, 2-Dibenzofurancarboxylic acid, 2-[(4-carboxyphenyl)sulfonyl]hydrazide] | 22 | 48.1 |
| COc1cccc2cc(C(=O)NNS(=O)(=O)c3cccc(Cl)c3Cl)oc12 [Example 104, 2-Benzofurancarboxylic acid, 7-methoxy-, 2-[(2,3-dichlorophenyl)sulfonyl]-hydrazide] | 1.4 | 23 |
| COc1ccc(Cl)cc1S(=O)(=O)NNC(=O)c1cc2cccc(OC)c2o1 [Example 106, 2-Benzofurancarboxylic acid, 7-methoxy-, 2-[(5-chloro-2-methoxyphenyl)-sulfonyl]hydrazide] | 5.6 | 42 |
| COc1ccc(Br)cc1S(=O)(=O)NNC(=O)c1cc2cccc(OC)c2o1 [Example 107, 2-Benzofurancarboxylic acid, 7-methoxy-, 2-[(5-bromo-2-methoxyphenyl)-sulfonyl]hydrazide] | 7.5 | 41 |
| CCc1ccc(S(=O)(=O)NNC(=O)c2cc3cccc(OC)c3o2)cc1 [Example 108, 2-Benzofurancarboxylic acid, 7-methoxy-, 2-[(4-ethylphenyl)sulfonyl]hydrazide] | 5.6 | 57 |

Reference: patent publication US20050004167A1, “Branched chain amino acid-dependent aminotransferase inhibitors and their use in the treatment of neurodegenerative diseases” (WARNER-LAMBERT COMPANY LLC, priority 2001, published 2005)
